The structures appear in SMILES notation. “Also recorded” adds a separate entry of the source.

One assay has as its target T1, purified recombinant perforin (Mus musculus, UniProt P10820).
T1 sequence (P10820 21-554): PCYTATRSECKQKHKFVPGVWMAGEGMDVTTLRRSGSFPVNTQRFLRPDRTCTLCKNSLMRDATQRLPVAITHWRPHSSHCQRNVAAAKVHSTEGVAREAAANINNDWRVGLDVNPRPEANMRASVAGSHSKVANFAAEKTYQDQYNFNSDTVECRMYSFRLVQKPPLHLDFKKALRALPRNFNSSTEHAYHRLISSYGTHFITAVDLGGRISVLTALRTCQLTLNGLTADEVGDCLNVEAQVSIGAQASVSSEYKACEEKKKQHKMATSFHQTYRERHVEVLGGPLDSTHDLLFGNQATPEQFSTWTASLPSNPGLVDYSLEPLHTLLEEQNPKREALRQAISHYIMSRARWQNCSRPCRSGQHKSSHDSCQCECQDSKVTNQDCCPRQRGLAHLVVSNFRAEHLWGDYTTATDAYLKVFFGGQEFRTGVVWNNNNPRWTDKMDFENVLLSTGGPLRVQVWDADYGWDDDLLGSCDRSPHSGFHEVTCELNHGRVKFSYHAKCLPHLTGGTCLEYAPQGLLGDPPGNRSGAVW
The assay can be described thus: cell-based. The format is cell-based. The note with it: lysis of Jurkat cells by purified recombinant perforin, 51Cr release, 0.1% BSA; average of at least three determinations.
In the case of `O=C1NC(=S)N/C1=C/c1ccc(-c2ccc3c(c2)CN(CCN2CCOCC2)C3=O)s1` [compound 130, (E,Z)-2-(2-Morpholinoethyl)-5-(5-((5-oxo-2-thioxoimidazolidin-4-ylidene)methyl)thiophen-2-yl)isoindolin-1-one], the “inhibition of Jurkat cell lysis, IC50” value was “not reproducible; also recorded: variable”.

The assay is the same for the next values; noted with them: lysis of Jurkat cells by purified recombinant perforin, 51Cr release, 0.1% BSA; average of at least three determinations; read-out: inhibition of Jurkat cell lysis, IC50.
The IC50 is the concentration needed to halve the response being measured. For `O=C1NC(=S)N/C1=C/c1ccc(-c2ccc3c(c2)CNC3=O)cc1` [compound 205], the IC50 turned out to be 5.55 µM. The same measure, in the same setting: the value for `O=C1NC(=S)N/C1=C/c1cc2ccc(-c3ccc4c(c3)CCNC4=O)cc2[nH]1` [compound 210] was 1.66 µM; that for `NC(=O)c1cccc(-c2ccc(/C=C3/NC(=S)NC3=O)s2)c1` [compound 60] was 0.79 µM. Take `O=C1NC(=S)N/C1=C/c1cc2cc(-c3ccc4c(c3)CCNC4=O)ccc2[nH]1` [compound 211]: the IC50 worked out at 1.45 µM. On to `O=C1NC(=S)N/C1=C/c1ccc(-c2ccc(C(=O)NCC(O)CO)cc2)s1` (stereo not shown) [compound 75], for which the IC50 was found to be 2.44 µM. `O=C1NC(=S)N/C1=C/c1ccc(-c2ccc(C(=O)N3CCOCC3)cc2)s1` [compound 69]: the IC50 was above 20 µM. On the same count and under the same terms, the value for `O=C1NC(=S)/C(=C/c2ccc3cc(-c4ccc5c(c4)CCNC5=O)ccc3n2)N1` [compound 212] was 2.55 µM; that for `O=C1NC(=S)N/C1=C\c1cc(-c2ccc3c(c2)CNC3=O)cs1` [compound 204] was 3 µM; that for `CNC(=O)c1ccc(-c2ccc(/C=C3/NC(=S)NC3=O)s2)cc1` [compound 67, (E,Z)-N-Methyl-4-(5-((5-oxo-2-thioxoimidazolidin-4-ylidene)methyl)thiophen-2-yl)benzamide] was 4.53 µM. Still for that read-out and setting: the value for `CC(=O)OCCN1Cc2cc(-c3ccc(/C=C4/NC(=S)NC4=O)s3)ccc2C1=O` [compound 124, (E,Z)-2-(1-Oxo-5-(5-((5-oxo-2-thioxoimidazolidin-4-ylidene)methyl)thiophen-2-yl)isoindolin-2-yl)ethyl Acetate] was 1.17 µM; that for `CC(=O)c1ccc(-c2ccc(/C=C3/NC(=S)NC3=O)s2)cc1` [compound 57] was 1.67 µM. Same read-out and setting: the value for `O=C1NC(=S)N/C1=C/c1ccc(-c2ccc(Br)cc2)s1` [compound 55] was 1.69 µM; that for `O=C1NC(=S)N/C1=C/c1ccc(-c2cccc(Cl)c2)s1` [compound 45] was 7.19 µM. Consider `CS(=O)(=O)Nc1ccc(-c2ccc(/C=C3/NC(=S)NC3=O)s2)cc1` [compound 64], for which the half-inhibitory concentration (IC50) came to 7.7 µM. Turning to `CN(C)C(=O)c1ccc(-c2ccc(/C=C3/NC(=S)NC3=O)s2)cc1` [compound 68], the IC50 came to 6.93 µM. The same measure, in the same setting: the value for `CC(C)N1Cc2cc(-c3ccc(/C=C4/NC(=S)NC4=O)s3)ccc2C1=O` [compound 123] was 4.42 µM; that for `CN1CCc2ccc(-c3ccc(/C=C4/NC(=S)NC4=O)s3)cc2C1=O` [compound 170] was 4.76 µM; that for `CCN1Cc2cc(-c3ccc(/C=C4/NC(=S)NC4=O)s3)ccc2C1=O` [compound 120] was 0.6 µM. Still for that read-out and setting: the value for `O=C1NC(=S)N/C1=C/c1ccc(-c2ccc(C(=O)NCCN3CCOCC3)cc2)s1` [compound 70] was above 20 µM.

`CN(C)CCCN1Cc2cc(-c3ccc(/C=C4/NC(=S)NC4=O)s3)ccc2C1=O` [compound 131, (E,Z)-2-(3-(Dimethylamino)propyl)-5-(5-((5-oxo-2-thioxoimidazolidin-4-ylidene)methyl)thiophen-2-yl)isoindolin-1-one]: the IC50 was above 20 µM.

For the compound `CC(=O)OCc1ccc(-c2ccc(/C=C3/NC(=S)NC3=O)s2)cc1` [compound 58, (E,Z)-4-(5-((5-Oxo-2-thioxoimidazolidin-4-ylidene)methyl)thiophen-2-yl)benzyl Acetate], the IC50 was 3.04 µM.

With `O=C1NC(=S)N/C1=C/c1ccc(-c2ccc3c(c2)CN(CCCN2CCCCC2)C3=O)s1` [compound 132], the IC50 worked out at 11.8 µM. Turning to `O=C1NC(=S)N/C1=C/c1ccc(-c2ccc(Cl)c(C(F)(F)F)c2)s1` [compound 54], the IC50 is 3.09 µM. Same read-out and setting: the value for `NC(=O)c1ccc(-c2ccc(/C=C3/NC(=S)NC3=O)s2)cc1` [compound 61] was 1.56 µM.
